Broadly, the pIC50 is the negative decadic logarithm of the IC50, by convention in mol/L. One may read the IC50 as the concentration needed to halve the response being measured.

We go through 13 compounds from patent US20250213593A1, “Use of Derivatives based on Sarsasapogenin Structure and Pharmaceutical Compositions thereof” (BEIJING PHYTOVENT PHARMACEUTICAL TECHNOLOGY CO., LTD., priority 2022, published 2025).

Each structure is given as a SMILES string. pIC50: −log10 of the molar value. Like-named read-outs stand apart in the source and are kept apart here.

Assay [1] relates to OCI-LY3 (human diffuse large B-cell lymphoma cells). In words: Cell proliferation assay, OCI-LY3. The class given is cell-based. Particulars: for pIC50: Homo sapiens, OCI-Ly3, 72 h. Here is the method:
(§1) • Experimental and analytical method: cells were inoculated into a 96-well cell culture plate with a lid at a maximum concentration of 10 μM for a test compound, and diluted in three folds to a series of test concentrations, and cells were incubated at 37° C., 5% CO2 for 72 h. The concentration of DMSO was 0.5%, 100 μl of medium was taken from each well. 100 μl of reagent (Celltitute Glo Assay Kit) was added to each well, and a flat plate was shaken on a plate shaker (protected from light) for 2 min. A culture plate was incubated (protected from light) at room temperature for 30 min. Chemiluminescence values were recorded by a multi-plate plate reader, and the experimental results were as follows:
(§2) U937 (histiocytic lymphoma cells), OCI-LY3 (human diffuse large B-cell lymphoma cells), U2932 (human diffuse large B-cell lymphoma cells), and HT cells (human mixed lymphoma cells) were analyzed in the table for experimental analysis of cell proliferation.

Assay [2] concerns U2932 (human diffuse large B-cell lymphoma cells). Description: Cell proliferation assay, U2932. Particulars: U2932, 72 h. The class given is cell-based. Here is the method: as §1, §2
For assay [3], the system named is HT cells (human mixed lymphoma cells). In words: Cell proliferation assay, HT. Type of assay: cell-based. Here is the method:
as §1, §2

Assay [4] has as its system human SHSY5Y neural tumor cells. In words: H2O2-induced oxidative damage of SHSY5Y cells (MTT). Conditions: 1 μM, pre-protected 24 h, 250 μM H2O2 24 h. The class given is cell-based.
In assay [5] the test system is ICR mice. In words: Sleep of mice at subthreshold hypnotic dosage of sodium pentobarbital. Particulars: Diazepam 1 mg/kg; vs blank control. The class given is in vivo, mouse. As for the experimental part: After adaptive feeding of mice, 50 qualified animals were selected according to their body weights and divided into 5 groups by Excel complete randomization: a blank control group, a positive control group (Diazepam), and high-, medium- and low-dosage groups of test product, with 10 animals in each group. Animals in each group should be administrated with drug solutions and vehicles. After 1 h of administration, the animals in each group were intraperitoneally injected with a maximum subthreshold dosage of sodium pentobarbital (firstly, a pre-experiment was conducted to determine a maximum subthreshold hypnotic dosage of sodium pentobarbital).

Assay [6] concerns Lepr gene mutant (DB) mice. Description: Blood glucose of DB mice. The class given is in vivo, mouse. Conditions: 80 mpk by gavage once a day, from 8 to 20 weeks of age. From the text:
• Experimental and analytical method: leptin receptor gene (OB-R) was also known as diabetes gene (db), leptin receptor (Lepr) is closely related to obesity, hypertension, diabetes, lipid metabolism disorders, etc. The courses of these diseases are greatly influenced by the genetic background. Topical insulin can not control the increase in blood glucose and gluconeogenesis levels in the liver. Gene editing technologies and embryo injection technologies were used to construct Lepr gene mutant mice. […] The blood glucose in each mouse of this strain began to rise sharply at 8 weeks of age, reaching 30 mmol/L, while the blood glucose of the normal background was only about 6 mmol/L. We started drug delivery from 8 weeks of age. Test small molecules were Embodiment 28, Embodiment 29 and Embodiment 30, all of which were at a dosage of 80 mpk, and delivered by gavage once a day.

Assay [7] deals with Raji-Luc hematologic tumor cells in NOD-Scid immunodeficient mice. Description: NOD-Scid mice inoculated with hematologic tumor cells Raji-Luc. Conditions: 100 mpk by gavage once a day.
For assay [8], the system named is hippocampal neurons. Description: L-cysteine-induced neuronal excitotoxicity. The class given is cell-based, SD rats. Particulars: compound 1 μM, 24 h before inducer. Here is the method: Experimental and analytical method: before the experiment, a 24-well cell culture plate was pretreated with Poly-D-lysine and placed in a cell incubator at 37° C. and 5% CO2 overnight. SD rats, 18 days pregnant, were ordered, brains of fetal rats (E18-19) were dissected, and hippocampal neurons in the brains were subjected to primary culture in a neuronal medium using a 24-well plate, and then cultured by a serum-free medium. The hippocampal neurons were cultured in a cell incubator at 37° C., 5% CO2 for 19 days (DIV19), then added with a compound to be tested (a final concentration of 1 μM) and a positive control AP5 [(2R)-amino-5-phosphonopentanoic acid(phosphonatopentanoate)] (a final concentration of 100 μM), cultured for 24 h, and then added with L-Cystine (400 μM) and NaHCO3 (10 mM). After 18 h, Hoechst3342 (2.5 μg/ml) was added for cell staining. The cells were placed in the incubator and cultured for 15 min, and photographed using the high-content fluorescence microscope, wherein 6 random non-overlapping fields were photographed for each duplicate well, and the total number of neurons and the number of dead neurons were counted with software Image J. The obtained data was used to determine whether there was a difference between a drug treatment group and a control group.
Compound treatment: 32 small molecule compounds in Embodiment 1 to Embodiment 19A were diluted with DMSO to a 1 mM mother solution; and 1 μL of mother solution was added to 1 ml of culture solution per well in a 24-well plate to a final concentration of 1 μM, wherein a positive control compound was […] of AP5 (100 mM mother solution), and a negative control was 1 μl of DMSO.

Assay [9] has as its system U937 (histiocytic lymphoma cells). In words: Cell proliferation assay, U937. Conditions: Homo sapiens, U-937, 72 h. The class given is cell-based. Here is the method: as §1, §2
Assay [10] has as its system male SD rats, TBI model. In words: Acute traumatic brain injury (TBI) rat model. The class given is in vivo. Conditions: 80 mpk once a day, 7 days; vs solvent control (P<0.05). As for the experimental part:
• Experimental and analytical method: male SD rats were used in this experiment to establish a TBI rat model, which was randomly divided into: a solvent control group (8 rats), a test product Embodiment 13B (80 mpk, 10 rats), and a test product Embodiment 26 (80 mpk, 9 rats). After TBI surgery, drugs were administered by gavage once a day for 7 consecutive days.

Assay [11] deals with primary cultured neurons in rats (cerebral cortex). Description: Oxygen glucose deprivation (OGD) injury of primary cultured rat neurons. Type of assay: cell-based. From the text:
Experimental and analytical method: rats, 15 days pregnant, were ordered, brains of fetal rats (E15-16) were dissected, and neurons in the cerebral cortex were subjected to primary culture in a neuronal medium for 14 days (DIV 14) using 48-well plates, followed by an OGD experiment. During the OGD experiment, a neuronal culture solution was replaced by a glucose- and oxygen-free culture solution (95% N2/5% CO2 balance), and the neurons were subjected to OGD treatment in an OGD chamber. Then, the oxygen- and glucose-free culture medium was replaced by a normal neuronal culture solution, which was then cultured in a 95% Air/5% CO2 incubator for 24 h for neuronal activity analysis. By staining with Hoechst 33342 and Propidium iodide, a high-content fluorescence microscope was used for photographing, wherein 20 random non-overlapping visual fields were photographed per duplicate well, and the total number of neurons and the number of dead neurons were counted by software (Thermo Scientific™, HCS Studio Cell Analysis Software). […]

On to `C[C@H]1CC[C@@]2(OC1)O[C@H]1C[C@H]3[C@@H]4CC[C@@H]5C[C@@H](NC(=O)CC(=O)N6CCN(CCN(C)C)CC6)CC[C@]5(C)C4CC[C@]3(C)[C@H]1[C@@H]2C` (some centres unmarked) [Embodiment 13A], for which the pIC50 in assay [1] was 5.75; in [2] it was 6.37; in assay [3] (Homo sapiens, HT, 72 h), 5.82. The “inhibitory effect on the proliferation of OCI-LY3 cell line (comparison in words)” value in assay [1] (among compounds of Table 13) was “best inhibitory effect”. The “inhibitory effect on the proliferation of HT cells (comparison in words)” value in assay [3] (among compounds of Table 13) is on record as “best inhibitory effect”.
In the case of `C[C@H]1CC[C@@]2(OC1)OC1CC3C4CC[C@@H]5C[C@@H](NC(=O)CC(=O)NCCO)CC[C@]5(C)C4CC[C@]3(C)C1[C@@H]2C` (some centres unmarked) [Embodiment 14A], the “protection of H2O2-induced neural tumor cell damages” value (shortened to “protection”) in assay [4] is on record as “significantly protected”.
As to `CN1C(=O)CN=C(c2ccccc2)c2cc(Cl)ccc21` [Diazepam, reference compound], in [5], the sleep latency result is recorded as “significantly shortened” and the sleep time entry was “significantly prolonged”.
Turning to `CCN1CCC(N2CCN(C(=O)CC(=O)NC3CC[C@]4(C)C5CC[C@]6(C)[C@@H]7[C@H](C[C@H]6[C@@H]5CC[C@@H]4C3)O[C@]3(CC[C@H](C)CO3)[C@H]7C)CC2)CC1` (some centres unmarked) [Embodiment 29], the blood glucose result in [6] is listed as “certain blood glucose-reducing effects”.
Regarding `C[C@H]1CC[C@@]2(OC1)O[C@H]1C[C@H]3[C@@H]4CC[C@@H]5CC(NC(=O)CC(=O)N6CCN(CCn7ccnc7)CC6)CC[C@]5(C)C4CC[C@]3(C)[C@H]1[C@@H]2C` (some centres unmarked) [Embodiment 40], the “tumor killing effect (in-vivo fluorescence intensity)” value in assay [7] is “relatively good tumor killing effects”.
For `C[C@H]1CC[C@@]2(OC1)O[C@H]1C[C@H]3[C@@H]4CC[C@@H]5CC(NC(=O)CCN6CCN(CCN(C)C)CC6)CC[C@]5(C)[C@H]4CC[C@]3(C)[C@H]1[C@@H]2C` (some centres unmarked) [Embodiment 13], in assay [4], the “protection” value is recorded as “significantly protected”. Further, the “protective effects on L-Cystine (400 μM)-induced neuronal excitotoxicity” value in assay [8] is listed as “protective effects”. Besides, the IC50 in [9] (low sugar, read-out: U937 (IC50, uM) Low sugar) was found to be 2.28 µM; in assay [9] (normal sugar, read-out: U937 (IC50, uM) Normal sugar), 4.04 µM. The pIC50 in [1] was 5.36; in assay [2], 5.92.
For the compound `C[C@H]1CC[C@@]2(OC1)O[C@H]1C[C@H]3[C@@H]4CC[C@@H]5CC(NC(=O)CC(=O)N6CCN(C7CCN(C)CC7)CC6)CC[C@]5(C)C4CC[C@]3(C)[C@H]1[C@@H]2C` (some centres unmarked) [Embodiment 26], in assay [10], the “early brain apoptosis rates” value was “significantly lower” and the total apoptosis rates result is recorded as “significantly lower”.
For `O=C1NCCc2c(OCCCCN3CCCCC3)cccc21` [DPQ], in assay [11], the “protective effect on neuronal damages” value is recorded as “significant protective effect”. The “proportion of dead cells” value in assay [11] (without OGD 10.32%, DMSO negative control 52.31%) was 22.22%.
As to `C[C@H]1CC[C@@]2(OC1)O[C@H]1C[C@H]3[C@@H]4CC[C@@H]5CC(NC(=O)CC(=O)N6CCCN(CCN(C)C)CC6)CC[C@]5(C)C4CC[C@]3(C)[C@H]1[C@@H]2C` (some centres unmarked) [Embodiment 39], the “tumor killing effect (in-vivo fluorescence intensity)” value in assay [7] is reported as “relatively good tumor killing effects”.
`C[C@H]1CC[C@@]2(OC1)O[C@H]1C[C@H]3[C@@H]4CC[C@@H]5CC(NC(=O)CC(=O)N6CCC(N7CCN(CC#N)CC7)CC6)CC[C@]5(C)C4CC[C@]3(C)[C@H]1[C@@H]2C` (some centres unmarked) [Embodiment 30]: the blood glucose entry in assay [6] was “best blood glucose-reducing effect and could reach the level of normal background mice”.
On the same count and under the same terms, the value for `COC(=O)N1CCN(C(=O)CC(=O)NC2CC[C@]3(C)C4CC[C@]5(C)[C@@H]6[C@H](C[C@H]5[C@@H]4CC[C@@H]3C2)O[C@]2(CC[C@H](C)CO2)[C@H]6C)CC1` (some centres unmarked) [Embodiment 28] was “certain blood glucose-reducing effects”.
Regarding `C[C@H]1CC[C@@]2(OC1)O[C@H]1C[C@H]3[C@@H]4CC[C@@H]5CC(NC(=O)C6CCN(C)CC6)CC[C@]5(C)[C@H]4CC[C@]3(C)[C@H]1[C@@H]2C` (some centres unmarked) [Embodiment 2], in assay [4], the “protection” value is recorded as “significantly protected”. Besides, in [8], the “protective effects on L-Cystine (400 μM)-induced neuronal excitotoxicity” value is recorded as “protective effects”.
In the case of `C[C@H]1CC[C@@]2(OC1)O[C@H]1C[C@@H]3[C@H](CC[C@H]4[C@H]3CC[C@@H]3CC(NC(=O)CC(=O)NCC5CCN(C)CC5)CC[C@@]34C)[C@H]1[C@@H]2C` (some centres unmarked) [Embodiment 7], the “protection” value in assay [4] is recorded as “significantly protected”.
